Data from patent US20220289766A1 (INFLAZOME LIMITED, priority 2019, published 2022).
pIC50: −log10 of the molar value. Structures can show the parent of a compound that is named as a salt.

Columns and labels:
NLRP3 [1] = target: T1, NLRP3 (Homo sapiens, UniProt Q96P20); assay: THP-1 cells pyroptosis assay; format: cell-based; set-up: Seed THP-1 cells (25,000 cells/well) containing 1.0 μg/ml LPS in 40 μl of RPMI medium; host or cells: THP-1 cells; conditions: LPS 1 μg/ml, compound 3 hrs, nigericin 5 μM 1 hr, resazurin readout
T1 sequence (Q96P20 whole entry): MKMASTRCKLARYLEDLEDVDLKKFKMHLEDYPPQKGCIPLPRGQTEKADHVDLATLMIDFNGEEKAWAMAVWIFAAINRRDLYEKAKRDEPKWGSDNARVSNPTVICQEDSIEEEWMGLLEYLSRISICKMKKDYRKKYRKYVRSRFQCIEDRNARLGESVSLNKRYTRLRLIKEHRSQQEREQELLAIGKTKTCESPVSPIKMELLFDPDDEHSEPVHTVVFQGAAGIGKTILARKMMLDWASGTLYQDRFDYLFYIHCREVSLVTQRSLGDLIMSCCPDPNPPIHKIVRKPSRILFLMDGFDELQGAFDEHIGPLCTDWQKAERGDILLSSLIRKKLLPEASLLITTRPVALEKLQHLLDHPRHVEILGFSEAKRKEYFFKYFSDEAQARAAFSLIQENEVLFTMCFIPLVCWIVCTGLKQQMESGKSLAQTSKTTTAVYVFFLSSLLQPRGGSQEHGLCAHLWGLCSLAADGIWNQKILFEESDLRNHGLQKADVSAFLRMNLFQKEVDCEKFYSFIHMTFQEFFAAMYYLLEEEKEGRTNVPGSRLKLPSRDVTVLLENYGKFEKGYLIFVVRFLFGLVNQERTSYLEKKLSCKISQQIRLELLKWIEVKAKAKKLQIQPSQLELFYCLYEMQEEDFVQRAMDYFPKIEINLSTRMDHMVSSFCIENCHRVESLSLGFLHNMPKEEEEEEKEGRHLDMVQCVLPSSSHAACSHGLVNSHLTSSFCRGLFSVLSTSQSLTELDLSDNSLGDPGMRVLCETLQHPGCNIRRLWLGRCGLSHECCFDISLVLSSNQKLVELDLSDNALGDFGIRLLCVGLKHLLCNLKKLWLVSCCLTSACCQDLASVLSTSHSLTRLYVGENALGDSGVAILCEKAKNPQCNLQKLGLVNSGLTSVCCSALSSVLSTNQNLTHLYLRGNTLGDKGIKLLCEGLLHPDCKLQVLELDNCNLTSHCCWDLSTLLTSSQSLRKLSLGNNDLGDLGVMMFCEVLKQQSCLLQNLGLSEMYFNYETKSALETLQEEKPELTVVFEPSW
Experimental: THP-1 cells (ATCC #TIB-202) were grown in RPMI containing L-glutamine (Gibco #11835) supplemented with 1 mM sodium pyruvate (Sigma #S8636) and penicillin (100 units/ml)/streptomycin (0.1 mg/ml) (Sigma #P4333) in 10% Fetal Bovine Serum (FBS) (Sigma #F0804). The cells were routinely passaged and grown to confluency (˜10^6 cells/ml). On the day of the experiment, THP-1 cells were harvested and resuspended into RPMI medium (without FBS). The cells were then counted and viability ([…]) checked by Trypan blue (Sigma #T8154). Appropriate dilutions were made to give a concentration of 625,000 cells/ml. To this diluted cell solution was added LPS (Sigma #L4524) to give a 1 μg/ml Final Assay Concentration (FAC). 40 μl of the final preparation was aliquoted into each well of a 96-well plate. The plate thus prepared was used for compound screening.
The following method step-by-step assay was followed for compound screening. • 1. Seed THP-1 cells (25,000 cells/well) containing 1.0 μg/ml LPS in 40 μl of RPMI medium (without FBS) in 96-well, black walled, clear bottom cell culture plates coated with poly-D-lysine (VWR #734-0317) • 2. Add 5 μl compound (8 points half-log dilution, with 10 μM top dose) or vehicle (DMSO 0.1% FAC) to the appropriate wells • 3. Incubate for 3 hrs at 37° C., 5% CO2 • 4. Add 5 μl nigericin (Sigma #N7143) (FAC 5 μM) to all wells • 5. Incubate for 1 hr at 37° C., 5% CO2 • 6. At the end of the incubation period, spin plates at 300×g for 3 mins and remove supernatant • 7. Then add 50 μl of resazurin (Sigma #R7017) (FAC 100 μM resazurin in RPMI medium without FBS) and incubate plates for a further 1-2 hrs at 37° C. and 5% CO2 • 8. Plates were read in an Envision reader at Ex 560 nm and Em 590 nm • 9. IC50 data is fitted to a non-linear regression equation (log inhibitor vs response-variable slope 4-parameters)

NLRP3 [2] = target: T1, NLRP3; assay: Human whole blood IL-1β release assay; format: cell-based; set-up: Plate out 80 μl of whole blood containing 1 μg/ml of LPS in 96-well, clear bottom cell culture plate; from tissue; host or cells: human whole blood from healthy donors; conditions: LPS 1 μg/ml, compound 3 hrs, nigericin 10 μM 1 hr, IL-1β by AlphaLisa, read-out: HWB IC50
Experimental: For systemic delivery, the ability to inhibit NLRP3 when the compounds are present within the bloodstream is of great importance. For this reason, the NLRP3 inhibitory activity of a number of compounds in human whole blood was investigated in accordance with the following protocol.
Human whole blood in Li-heparin tubes was obtained from healthy donors from a volunteer donor panel. • 1. Plate out 80 μl of whole blood containing 1 μg/ml of LPS in 96-well, clear bottom cell culture plate (Corning #3585) • 2. Add 10 μl compound (8 points half-log dilution with 10 μM top dose) or vehicle (DMSO 0.1% FAC) to the appropriate wells • 3. Incubate for 3 hrs at 37° C., 5% CO2 • 4. Add 10 μl nigericin (Sigma #N7143) (10 μM FAC) to all wells • 5. Incubate for 1 hr at 37° C., 5% CO2 • 6. At the end of the incubation period, spin plates at 300×g for 5 mins to pellet cells and remove […] of supernatant and add to 96-well v-bottom plates for IL-1β analysis (note: these plates containing the supernatants can be stored at −80° C. to be analysed at a later date) • 7. IL-1β was measured according to the manufacturer protocol (Perkin Elmer-AlphaLisa IL-1 Kit AL220F-5000) • 8. IC50 data is fitted to a non-linear regression equation (log inhibitor vs response-variable slope 4-parameters)

pIC50 (NLRP3 [1])	pIC50 (NLRP3 [2])	SMILES
6.30 to 7.00	5.30 to 6.00	CN1CCCOc2cc(ccn2)-c2ccc3c(c2NC(=O)NS(=O)(=O)c2cc(n(C4CC4)n2)C1)CCC3 [Example 14, 17-cyclopropyl-20-methyl-24-oxa-14λ^6-thia-11,13,16,17,20, 26-hexaazapentacyclo-[23.3.1.1^15,18.0^2,10.0^5,9]triaconta-1(28),2,4,9,15,18(30),25(29),26-octaene-12,14,14-trione]
≥ 7.00	6.30 to 7.00	O=C1Nc2c(ccc3c2CCC3)-c2ccnc(c2)OCCCOCc2cc(nn2C2CC2)S(=O)(=O)N1 [Example 15, 17-cyclopropyl-20,24-dioxa-14λ^6-thia-11,13,16,17,26-pentaazapentacyclo-[23.3.1.1^15,18.0^2,10.0^5,9]triaconta-1(28),2,4,9,15,18(30),25(29),26-octaene-12,14,14-trione]
≥ 7.00	6.00 to 6.30	CN(C)Cc1cc2nn1CCCCCOc1cc(ccn1)-c1ccc3c(c1NC(=O)NS2(=O)=O)CCC3 [Example 17, 17-[(dimethylamino)-methyl]-24-oxa-14λ^6-thia-11,13,18,26,30-pentaazapentacyclo-[23.3.1.1^15,18.0^2,10.0^5,9]triaconta-1(28),2,4,9,15(30),16,25(29),26-octaene-12,14,14-trione]
6.30 to 7.00	6.00 to 6.30	CN1CCOc2cc(ccn2)-c2ccc3c(c2NC(=O)NS(=O)(=O)c2ccn(n2)C(C)(C)C1)CCC3 [Example 18, 19,19,21-trimethyl-24-oxa-14λ^6-thia-11,13,18,21,26,30-hexaazapentacyclo-[23.3.1.1^15,18.0^2,10.0^5,9]triaconta-1(28),2,4,9,15(30),16,25(29),26-octaene-12,14,14-trione]
6.00 to 6.30	6.00 to 6.30	O=C1Nc2c(ccc3c2CCC3)-c2ccnc(c2)OCCCCCS(=O)(=O)N1 [Example 19, 20-oxa-14λ^6-thia-11,13,22-triazatetracyclo-[19.3.1.0^2,10.0^5,9]triaconta-1(24),2,4,9,21(25),22-hexaene-12,14,14-trione]
≥ 7.00	6.30 to 7.00	O=C1Nc2c(ccc3c2CCC3)-c2ccnc(c2)OCCn2ccc(n2)S(=O)(=O)N1 [Example 20, 21-oxa-14λ^6-thia-11,13,18,23,27-pentaazapentacyclo-[20.3.1.1^15,18.0^2,10.0^5,9]heptacosa-1(25),2,4,9,15(27),16,22(26),23-octaene-12,14,14-trione]
6.30 to 7.00	6.30 to 7.00	CN(C)Cc1cc2nn1CCCOc1cc(ccn1)-c1ccc3c(c1NC(=O)NS2(=O)=O)CCC3 [Example 22, 17-[(dimethylamino)-methyl]-22-oxa-14λ^6-thia-11,13,18,24,28-pentaazapentacyclo-[21.3.1.1^15,18.0^2,10.0^5,9]octacosa-1(26),2,4,9,15(28),16,23(27),24-octaene-12,14,14-trione]
6.30 to 7.00	6.30 to 7.00	O=C1Nc2c(ccc3c2CCC3)-c2ccnc(c2)OCCCn2cc(F)c(n2)S(=O)(=O)N1 [Example 23, 16-fluoro-22-oxa-14λ^6-thia-11,13,18,24,28-pentaazapentacyclo-[21.3.1.1^15,18.0^2,10.0^5,9]octacosa-1(26),2,4,9,15(28),16,23(27),24-octaene-12,14,14-trione]
≥ 7.00	6.30 to 7.00	Cc1cc2c(c3c1-c1ccnc(c1)OCC(C)(C)n1ccc(n1)S(=O)(=O)NC(=O)N3)CCC2 [Example 24, 3,19,19-trimethyl-21-oxa-14λ^6-thia-11,13,18,23,27-pentaazapentacyclo-[20.3.1.1^15,18.0^2,10.0^5,9]heptacosa-1(25),2(10),3,5(9),15(27),16,22(26),23-octaene-12,14,14-trione, Sodium Salt]
≥ 7.00	≥ 7.00	O=C1Nc2c(ccc3c2CCC3)-c2ccnc(c2)OCCn2cc(F)c(n2)S(=O)(=O)N1 [Example 25, 16-fluoro-21-oxa-14λ^6-thia-11,13,18,23,27-pentaazapentacyclo-[20.3.1.1^15,18.0^2,10.0^5,9]heptacosa-1(25),2,4,9,15(27),16,22(26),23-octaene-12,14,14-trione]
≥ 7.00	6.30 to 7.00	Cc1cc2c(c3c1-c1ccnc(c1)OCC(C)(C)n1cc(F)c(n1)S(=O)(=O)NC(=O)N3)CCC2 [Example 26]
≥ 7.00	6.30 to 7.00	CC1(C)COc2cc(ccn2)-c2ccc3c(c2NC(=O)NS(=O)(=O)c2nn1cc2F)CCC3 [Example 27, 16-fluoro-19,19-dimethyl-21-oxa-14λ^6-thia-11,13,18,23,27-pentaaza-pentacyclo[20.3.1.1^15,18.0^2,10.0^5,9]-heptacosa-1(25),2,4,9,15(27),16,22(26),23-octaene-12,14,14-trione, sodium salt]
≥ 7.00	6.30 to 7.00	Cc1cc2c(c3c1-c1ccnc(c1)OCCn1ccc(n1)S(=O)(=O)NC(=O)N3)CCC2 [Example 28, 3-methyl-21-oxa-14λ^6-thia-11,13,18,23,27-pentaazapentacyclo-[20.3.1.1^15,18.0^2,10.0^5,9]heptacosa-1(25),2(10),3,5(9),15(27),16,22(26),23-octaene-12,14,14-trione, sodium salt]
≥ 7.00	6.30 to 7.00	Cc1cc2c(c3c1-c1ccnc(c1)OCCn1cc(F)c(n1)S(=O)(=O)NC(=O)N3)CCC2 [Example 29, 16-fluoro-3-methyl-21-oxa-14λ^6-thia-11,13,18,23,27-pentaaza-pentacyclo[20.3.1.1^15,18.0^2,10.0^5,9]-heptacosa-1(25),2(10),3,5(9),15(27),16,22(26),23-octaene-12,14,14-trione, sodium salt]
≥ 7.00	6.30 to 7.00	CC(C)c1cc(F)cc2c1NC(=O)NS(=O)(=O)c1nn(cc1F)C(C)(C)COc1cc-2ccn1 [Example 30, 4,13-difluoro-16,16-dimethyl-6-(propan-2-yl)-18-oxa-11λ^6-thia-8,10,15,20,24-pentaazatetracyclo-[17.3.1.1^12,15.0^2,7]tetracosa-1(22),2(7),3,5,12(24),13,19 (23),20-octaene-9,11,11-trione, sodium salt]
≥ 7.00	6.30 to 7.00	O=C1Nc2c(ccc3c2CCC3)-c2ccnc(c2)OCCc2cccc(c2)S(=O)(=O)N1 [Example 31, 22-oxa-14λ^6-thia-11,13,24-triaza-pentacyclo-[21.3.1.1^15,19.0^2,10.0^5,9]-octacosa-1(26),2,4,9,15(28),16,18,23(27),24-nonaene-12,14,14-trione, sodium salt]
6.30 to 7.00	6.30 to 7.00	CC1(C)COc2nccc(c2F)-c2ccc3c(c2NC(=O)NS(=O)(=O)c2ccn1n2)CCC3 [Example 32, 26-fluoro-19,19-dimethyl-21-oxa-14λ^6-thia-11,13,18,23,27-pentaaza-pentacyclo[20.3.1.1^15,18.0^2,10.0^5,9]-heptacosa-1(26),2,4,9,15(27),16,22,24-octaene-12,14,14-trione, sodium salt]
6.00 to 6.30	5.30 to 6.00	Cc1cnc2cc1-c1ccc3c(c1NC(=O)NS(=O)(=O)c1ccn(n1)C(C)(C)CO2)CCC3 [Example 33, 19,19,25-trimethyl-21-oxa-14λ^6-thia-11,13,18,23,27-pentaaza-pentacyclo-[20.3.1.1^15,18.0^2,10.0^5,9]-heptacosa-1(26),2,4,9,15(27),16,22,24-octaene-12,14,14-trione, sodium salt]
